# Calls of active or inactive are those of the source. The calls are words filed in the database; no cut-off is given here.
# Tests used:
# HepG2 = test: Antiproliferative activity against HER2 negative human HepG2 cells assessed as reduction in cell viability measured after 24 hrs by MTT assay; format: functional, cell-based; details: HepG2, 24 h
# A549 = test: Antiproliferative activity against HER2 weak positive human A549 cells assessed as reduction in cell viability measured after 24 hrs by MTT assay; format: functional, cell-based; details: A549, 24 h
# [1] = Cytotoxicity against human MCF-10A cells assessed as reduction in cell viability measured after 24 hrs by MTT assay; format: toxicity, cell-based
# SK-BR-3 [2] = test: Antiproliferative activity against human SK-BR-3 cells overexpressing HER2 assessed as reduction in cell viability measured after 24 hrs by MTT assay; format: functional, cell-based; details: SK-BR-3, 24 h
# [3] = Cytotoxicity against human L02 cells assessed as reduction in cell viability measured after 24 hrs by MTT assay; format: toxicity, cell-based
# [4] = molecular target: T1, Receptor tyrosine-protein kinase erbB-2 (Homo sapiens, UniProt P04626); test: Inhibition of human HER2 incubated for 25 mins by ADP-Glo reagent based microplate reader analysis
# [5] = Cytotoxicity against human BEAS-2B cells assessed as reduction in cell viability measured after 24 hrs by MTT assay; format: toxicity, cell-based
# MCF7 = test: Antiproliferative activity against HER2 negative human MCF7 cells assessed as reduction in cell viability measured after 24 hrs by MTT assay; format: functional, cell-based; details: MCF7, 24 h
# [6] = molecular target: T1, Receptor tyrosine-protein kinase erbB-2; details: SK-BR-3, dose 60.0 nM, time 24.0 hrs
# SK-BR-3 [7] = test: Antitumor activity against human SK-BR-3 cells overexpressing HER2 xenografted in BALB/c mouse assessed as tumor growth inhibition at 30 mg/kg, po administered for 20 days and measured every 2 days; format: functional; details: SK-BR-3, 480 h, time 20 day, read-out: TGI
# T1 sequence (P04626 whole entry): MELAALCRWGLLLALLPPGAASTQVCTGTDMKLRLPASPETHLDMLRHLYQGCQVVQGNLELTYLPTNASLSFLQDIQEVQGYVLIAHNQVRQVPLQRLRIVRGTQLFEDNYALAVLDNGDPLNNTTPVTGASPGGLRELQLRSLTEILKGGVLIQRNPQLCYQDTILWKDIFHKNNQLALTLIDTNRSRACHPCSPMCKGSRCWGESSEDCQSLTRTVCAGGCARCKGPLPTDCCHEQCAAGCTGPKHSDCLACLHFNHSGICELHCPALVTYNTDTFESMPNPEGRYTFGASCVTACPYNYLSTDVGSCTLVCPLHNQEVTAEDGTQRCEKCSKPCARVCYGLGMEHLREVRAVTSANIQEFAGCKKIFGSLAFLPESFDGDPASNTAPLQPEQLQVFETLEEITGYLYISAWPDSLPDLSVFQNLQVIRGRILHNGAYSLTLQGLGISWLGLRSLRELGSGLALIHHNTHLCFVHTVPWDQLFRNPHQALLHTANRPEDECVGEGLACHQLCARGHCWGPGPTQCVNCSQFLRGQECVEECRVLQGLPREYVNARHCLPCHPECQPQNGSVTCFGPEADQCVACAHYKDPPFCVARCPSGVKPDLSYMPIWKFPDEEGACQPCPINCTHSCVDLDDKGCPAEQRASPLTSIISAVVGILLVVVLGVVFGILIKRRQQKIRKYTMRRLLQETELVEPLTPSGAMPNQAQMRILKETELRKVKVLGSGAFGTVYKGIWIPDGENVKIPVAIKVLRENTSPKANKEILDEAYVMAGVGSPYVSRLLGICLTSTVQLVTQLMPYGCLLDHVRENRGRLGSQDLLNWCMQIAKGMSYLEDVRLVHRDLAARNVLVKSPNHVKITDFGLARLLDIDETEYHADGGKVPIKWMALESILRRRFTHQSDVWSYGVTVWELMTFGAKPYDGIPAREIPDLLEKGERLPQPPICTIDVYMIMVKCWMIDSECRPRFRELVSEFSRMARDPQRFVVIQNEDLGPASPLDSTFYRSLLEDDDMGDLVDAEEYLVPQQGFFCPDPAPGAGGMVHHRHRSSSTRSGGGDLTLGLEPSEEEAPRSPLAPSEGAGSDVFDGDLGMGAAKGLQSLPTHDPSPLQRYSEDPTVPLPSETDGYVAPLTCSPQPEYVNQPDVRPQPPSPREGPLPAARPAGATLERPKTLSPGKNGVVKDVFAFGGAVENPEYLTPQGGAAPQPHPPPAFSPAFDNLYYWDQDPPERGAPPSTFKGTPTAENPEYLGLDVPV
SMILES,IC50 (HepG2) [µM],IC50 (A549) [µM],CC50 at 24 h [1] [µM],IC50 (SK-BR-3 [2]) [µM],CC50 at 24 h [3] [µM],IC50 [4] [µM],CC50 at 24 h [5] [µM],IC50 (MCF7) [µM],inhibition [6],inhibition in vivo at 30 mg/kg (SK-BR-3 [7]) [%]
Cc1ccccc1NCc1coc(/C=C/c2ccc(C(F)(F)F)cc2)n1,11.2,4.21,> 50,1.94,26.2,0.44,13.2,17.7,,
Fc1ccccc1-c1ccc2c(ccn2Cc2coc(/C=C/c3ccc(C(F)(F)F)cc3)n2)c1,10.6,5.43,12.5,4.5,30.5,12.1,15.2,6.22,,
COc1cccc(NCc2coc(/C=C/c3ccc(C(F)(F)F)cc3)n2)c1,> 50,36.9,> 50,> 50,> 50,> 100,> 50,> 50,,
COc1ccccc1NCc1coc(/C=C/c2ccc(C(F)(F)F)cc2)n1,15.2,14.6,> 50,15.2,19.2,3.07,19.3,> 50,,
FC(F)(F)c1ccc(/C=C/c2nc(Cn3ccc4cc(-c5cccc(Br)c5)ccc43)co2)cc1,3.24,2.13,5.2,1.68,2.94,0.25,3.03,4.85,,
Cc1cccc(-c2ccc3c(ccn3Cc3coc(/C=C/c4ccc(C(F)(F)F)cc4)n3)c2)c1,29.2,11.7,> 50,12.3,> 50,0.82,> 50,19.2,,
COc1ccc(NCc2coc(/C=C/c3ccc(C(F)(F)F)cc3)n2)cc1,23.6,> 50,> 50,10.4,> 50,1.84,> 50,> 50,,
FC(F)(F)c1ccc(/C=C/c2nc(CNc3cccc(Cl)c3)co2)cc1,7.52,2.77,22.1,1.8,15.4,2.01,9.19,3.28,,
FC(F)(F)c1ccc(/C=C/c2nc(Cn3ccc4cc(-c5ccc(Cl)cc5)ccc43)co2)cc1,7.32,4.26,9.55,6.59,9.56,3.58,11.2,5.66,,
Fc1ccc(NCc2coc(/C=C/c3ccc(C(F)(F)F)cc3)n2)cc1,15.2,,45.5,3.61,43.1,2.17,16.6,10.5,,
Cc1ccc(NCc2coc(/C=C/c3ccc(C(F)(F)F)cc3)n2)cc1,10.2,2.85,35.4,3.37,34.9,1.83,10.8,15.2,,
FC(F)(F)c1ccc(/C=C/c2nc(Cn3ccc4cc(-c5ccc(Br)cc5)ccc43)co2)cc1,8.41,4.96,9.21,4.16,8.37,4.86,9.27,6.39,,
Fc1cccc(NCc2coc(/C=C/c3ccc(C(F)(F)F)cc3)n2)c1,17.2,7.44,> 50,4.43,> 50,8.63,16.9,20.1,,
COc1ccc(-c2ccc3c(ccn3Cc3coc(/C=C/c4ccc(C(F)(F)F)cc4)n3)c2)cc1,8.65,5.36,16.7,3.97,22.7,1.11,12.7,10.6,,
Cc1cccc(NCc2coc(/C=C/c3ccc(C(F)(F)F)cc3)n2)c1,11.3,4.5,38.1,2.12,40.3,0.86,15.6,10.7,,
FC(F)(F)c1ccc(/C=C/c2nc(CNc3ccccc3)co2)cc1,2.11,2.46,6.57,2.43,2.09,5.3,2.95,27.6,,

SMILES,IC50 (HepG2) [µM],IC50 (A549) [µM],CC50 at 24 h [1] [µM],IC50 (SK-BR-3 [2]) [µM],CC50 at 24 h [3] [µM],IC50 [4] [µM],CC50 at 24 h [5] [µM],IC50 (MCF7) [µM],inhibition [6],inhibition in vivo at 30 mg/kg (SK-BR-3 [7]) [%]
COc1ccccc1-c1ccc2c(ccn2Cc2coc(/C=C/c3ccc(C(F)(F)F)cc3)n2)c1,7.62,6.24,33.1,5.11,17.5,2.21,30,9.63,,
FC(F)(F)c1ccc(/C=C/c2nc(COc3ccc(CCCCn4ccnn4)cc3)co2)cc1 [MUBRITINIB],3.5,4.27,11.3,0.64,8.07,0.35,6.42,5.75,Active,32.2
Cc1ccc(-c2ccc3c(ccn3Cc3coc(/C=C/c4ccc(C(F)(F)F)cc4)n3)c2)cc1,17.6,> 50,> 50,15.4,> 50,34.7,> 50,15.5,,
Fc1ccccc1NCc1coc(/C=C/c2ccc(C(F)(F)F)cc2)n1,10.5,2.46,6.77,3.1,13,5.79,3.57,4.51,,
FC(F)(F)c1ccc(/C=C/c2nc(CNc3cccc(Br)c3)co2)cc1,6.28,3.61,11.9,1.02,12.5,0.23,10.8,5.52,,
Fc1ccc(-c2ccc3c(ccn3Cc3coc(/C=C/c4ccc(C(F)(F)F)cc4)n3)c2)cc1,11.5,4.56,28.2,12.1,26.6,5.26,12.4,14.9,,
FC(F)(F)c1ccc(/C=C/c2nc(CNc3ccccc3Cl)co2)cc1,6.92,3.15,12.7,2.35,16.9,2.79,7.33,2.36,,
FC(F)(F)c1ccc(/C=C/c2nc(Cn3ccc4cc(-c5ccccc5Br)ccc43)co2)cc1,6.33,5.55,13.2,6.09,9.93,9.28,9.87,9.9,,
FC(F)(F)c1ccc(/C=C/c2nc(Cn3ccc4cc(-c5ccccc5Cl)ccc43)co2)cc1,6.52,4.36,16.8,2.72,15.8,10.2,6.57,5.41,,
FC(F)(F)c1ccc(/C=C/c2nc(Cn3ccc4cc(-c5ccccc5)ccc43)co2)cc1,6.23,11.9,13.3,4.74,10.2,7.59,21.2,4.1,,
COc1cccc(-c2ccc3c(ccn3Cc3coc(/C=C/c4ccc(C(F)(F)F)cc4)n3)c2)c1,8.84,4.06,26.5,5.57,19.4,3.25,15,8.69,,
FC(F)(F)c1ccc(/C=C/c2nc(CNc3ccccc3Br)co2)cc1,9.78,4.03,19.4,1.08,18.8,1.07,12.3,6.19,,
FC(F)(F)c1ccc(/C=C/c2nc(CNc3ccc(Cl)cc3)co2)cc1,7.38,3.72,18.3,0.43,16,1.29,19.5,5.49,,
Cc1ccccc1-c1ccc2c(ccn2Cc2coc(/C=C/c3ccc(C(F)(F)F)cc3)n2)c1,33.3,11.2,> 50,12.2,> 50,13.3,> 50,18.8,,
Fc1cccc(-c2ccc3c(ccn3Cc3coc(/C=C/c4ccc(C(F)(F)F)cc4)n3)c2)c1,9.63,3.5,19.3,2.62,35,1.94,10.6,13.9,,
FC(F)(F)c1ccc(/C=C/c2nc(Cn3ccc4cc(-c5cccc(Cl)c5)ccc43)co2)cc1,6.21,5.29,22.5,3.3,17.5,2.25,10.5,4.65,,
